Experimental data reported in patent US11634447B2 (priority 2012, dated 2023).

What follows are compounds tested on bacterial strain LF82 binding to the glycoprotein BSA-(Mannose)3 (assay: Bacterial Binding Assay (BBA)). Conditions: read-out: Bacterial Binding Assay IC50, LF82/Luciferase strain binding to BSA-(Man)3 coated plates, luminescence.
Assay type: cell-based, Escherichia coli
Procedure, shortened: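 Inhibition of LF82/luciferase E. coli adhesion is read as luminescence after washing off unbound cells. Compound and bacteria (10^7 per well) are co-incubated 40-75 min at room temperature on wells coated with 0.5-2 μg/mL BSA-(Man)3, with BSA-only wells as background; IC50 values derived.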

Q: For `COc1cccc(C2(O)c3cc(C#C[C@H]4O[C@H](CO)[C@@H](O)[C@H](O)[C@@H]4O)ccc3-c3ccc(C#C[C@H]4O[C@H](CO)[C@@H](O)[C@H](O)[C@@H]4O)cc32)c1` [Compound 170, (2R,3S,4R,5S,6R)-2-[2-[9-hydroxy-9-(3-methoxyphenyl)-7-[2-[(2R,3S,4R,5S,6R)-3,4,5-trihydroxy-6-(hydroxymethyl)tetrahydropyran-2-yl]ethynyl]fluoren-2-yl]ethynyl]-6-(hydroxymethyl)tetrahydropyran-3,4,5-triol], which IC50 is on record?
A: 7.5 nM

Q: Which IC50 does the source give for `OC[C@H]1O[C@H](c2cc3ccc(C#C[C@H]4O[C@H](CO)[C@@H](O)[C@H](O)[C@@H]4O)cc3[nH]2)[C@@H](O)[C@@H](O)[C@@H]1O` [Compound 146, (2R,3 S,4R,5S,6R)-2-(hydroxymethyl)-6-[2-[2-[(2R,3 S,4R,5S,6R)-3,4,5-trihydroxy-6-(hydroxymethyl)tetrahydropyran-2-yl]-1H-indol-6-yl]ethynyl]tetrahydropyran-3,4,5-triol] here?
A: 165 nM

Q: For `OC[C@H]1O[C@H](C#Cc2ccc(C#C[C@H]3O[C@H](CO)[C@@H](O)[C@H](O)[C@@H]3O)c3cnccc23)[C@@H](O)[C@@H](O)[C@@H]1O` [Compound 130, (2R,3S,4R,5S,6R)-2-(hydroxymethyl)-6-[2-[8-[-2-[(2R,3S,4R,5S,6R)-3,4,5-trihydroxy-6-(hydroxymethyl)tetrahydropyran-2-yl]ethynyl]-5-isoquinolyl]ethynyl]tetrahydropyran-3,4,5-triol], which IC50 is on record?
A: 67 nM

Q: For `CCCn1c2cc(C#C[C@H]3O[C@H](CO)[C@@H](O)[C@H](O)[C@@H]3O)ccc2c2ccc(C#C[C@H]3O[C@H](CO)[C@@H](O)[C@H](O)[C@@H]3O)cc21` [Compound 110, (2R,3S,4R,5S,6R)-2-(hydroxymethyl)-6-[2-[9-propyl-7-[2-[(2R,3S,4R,5S,6R)-3,4,5-trihydroxy-6-(hydroxymethyl)tetrahydropyran-2-yl]ethynyl]carbazol-2-yl]ethynyl]tetrahydropyran-3,4,5-triol], which IC50 is on record?
A: 0.89 nM

Q: `O=C(c1ccn[nH]1)N1CCC2(CC1)c1cc(C#C[C@H]3O[C@H](CO)[C@@H](O)[C@H](O)[C@@H]3O)ccc1-c1ccc(C#C[C@H]3O[C@H](CO)[C@@H](O)[C@H](O)[C@@H]3O)cc12` [Compound 231] was tested. Which IC50 did it give?
A: 0.08 nM

Q: Which IC50 does the source give for `O=C(Cn1c2cc(C#C[C@H]3O[C@H](CO)[C@@H](O)[C@H](O)[C@@H]3O)ccc2c2ccc(C#C[C@H]3O[C@H](CO)[C@@H](O)[C@H](O)[C@@H]3O)cc21)N1CCOCC1` [Compound 180, 2-[2,7-bis[2-[(2R,3S,4R,5S,6R)-3,4,5-trihydroxy-6-(hydroxymethyl)tetrahydropyran-2-yl]ethynyl]carbazol-9-yl]-1-morpholino-ethanone] here?
A: 5.5 nM

Q: For `NC1CCC2(CC1)c1cc(C#C[C@H]3O[C@H](CO)[C@@H](O)[C@H](O)[C@@H]3O)ccc1-c1ccc(C#C[C@H]3O[C@H](CO)[C@@H](O)[C@H](O)[C@@H]3O)cc12` [Compound 205], which IC50 is on record?
A: 0.39 nM

Q: Which IC50 does the source give for `OC[C@H]1O[C@H](C#Cc2ccc(C#C[C@H]3O[C@H](CO)[C@@H](O)[C@H](O)[C@@H]3O)c(Cl)c2)[C@@H](O)[C@@H](O)[C@@H]1O` [Compound 102, (2R,3S,4R,5S,6R)-2-[2-[3-chloro-4-[2-[(2R,3S,4R,5S,6R)-3,4,5-trihydroxy-6-(hydroxymethyl)tetrahydropyran-2-yl]ethynyl]phenyl]ethynyl]-6-(hydroxymethyl)tetrahydropyran-3,4,5-triol] here?
A: 24 nM

Q: Which IC50 does the source give for `CCc1cc(C#C[C@H]2O[C@H](CO)[C@@H](O)[C@H](O)[C@@H]2O)ccc1C#C[C@H]1O[C@H](CO)[C@@H](O)[C@H](O)[C@@H]1O` [Compound 98, (2R,3S,4R,5S,6R)-2-[2-[3-ethyl-4-[2-[(2R,3S,4R,5S,6R)-3,4,5-trihydroxy-6-(hydroxymethyl)tetrahydropyran-2-yl]ethynyl]phenyl]ethynyl]-6-(hydroxymethyl)tetrahydropyran-3,4,5-triol] here?
A: 12 nM

Q: Which IC50 does the source give for `COc1c(C#C[C@H]2O[C@H](CO)[C@@H](O)[C@H](O)[C@@H]2O)ccc2c(OC)c(C#C[C@H]3O[C@H](CO)[C@@H](O)[C@H](O)[C@@H]3O)ccc12` [Compound 125, (2R,3S,4R,5S,6R)-2-[2-[1,5-dimethoxy-6-[2-[(2R,3S,4R,5S,6R)-3,4,5-trihydroxy-6-(hydroxymethyl)tetrahydropyran-2-yl]ethynyl]-2-naphthyl]ethynyl]-6-(hydroxymethyl)tetrahydropyran-3,4,5-triol] here?
A: 54 nM

Q: `Cc1cc(C#C[C@H]2O[C@H](CO)[C@@H](O)[C@H](O)[C@@H]2O)ccc1C#C[C@H]1O[C@H](CO)[C@@H](O)[C@H](O)[C@@H]1O` [Compound 104, (2R,3S,4R,5S,6R)-2-(hydroxymethyl)-6-[2-[3-methyl-4-[2-[(2R,3S,4R,5S,6R)-3,4,5-trihydroxy-6-(hydroxymethyl)tetrahydropyran-2-yl]ethynyl]phenyl]ethynyl]tetrahydropyran-3,4,5-triol] was tested. Which IC50 did it give?
A: 34 nM

Q: With `CCc1cc(C#C[C@H]2O[C@H](CO)[C@@H](O)[C@H](O)[C@@H]2O)c(CC)cc1C#C[C@H]1O[C@H](CO)[C@@H](O)[C@H](O)[C@@H]1O` [Compound 86, (2R,3S,4R,5S,6R)-2-[2-[2,5-diethyl-4-[2-[(2R,3S,4R,5S,6R)-3,4,5-trihydroxy-6-(hydroxymethyl)tetrahydropyran-2-yl]ethynyl]phenyl]ethynyl]-6-(hydroxymethyl)tetrahydropyran-3,4,5-triol] as the compound, how does the IC50 read?
A: 22 nM

Q: How did the IC50 turn out when `OC[C@H]1O[C@H](C#Cc2ccc3c(c2)C(CO)(CO)c2cc(C#C[C@H]4O[C@H](CO)[C@@H](O)[C@H](O)[C@@H]4O)ccc2-3)[C@@H](O)[C@@H](O)[C@@H]1O` [Compound 217, (2R,3S,4R,5S,6R)-2-[2-[9,9-Bis(hydroxymethyl)-7-[2-[(2R,3S,4R,5S,6R)-3,4,5-trihydroxy-6-(hydroxymethyl)tetrahydropyran-2-yl]ethynyl]fluoren-2-yl]ethynyl]-6-(hydroxymethyl)tetrahydropyran-3,4,5-triol] was run?
A: 20 nM

Q: For `OC[C@H]1O[C@H](C#Cc2cc(C#C[C@H]3O[C@H](CO)[C@@H](O)[C@H](O)[C@@H]3O)c3[nH]ncc3c2)[C@@H](O)[C@@H](O)[C@@H]1O` [Compound 212, (2R,3S,4R,5S,6R)-2-(hydroxymethyl)-6-[2-[7-[2-[(2R,3S,4R,5S,6R)-3,4,5-trihydroxy-6-(hydroxymethyl)tetrahydropyran-2-yl]ethynyl]-1H-indazol-5-yl]ethynyl]tetrahydropyran-3,4,5-triol], which IC50 is on record?
A: 4.9 nM

Q: How did the IC50 turn out when `Cc1cc(C#C[C@H]2O[C@H](CO)[C@@H](O)[C@H](O)[C@@H]2O)ccc1-c1ccc(C#C[C@H]2O[C@H](CO)[C@@H](O)[C@H](O)[C@@H]2O)cc1C` [Compound 124, (2R,3S,4R,5S,6R)-2-(hydroxymethyl)-6-[2-[3-methyl-4-[2-methyl-4-[2-[(2R,3S,4R,5S,6R)-3,4,5-trihydroxy-6-(hydroxymethyl)tetrahydropyran-2-yl]ethynyl]phenyl]phenyl]ethynyl]tetrahydropyran-3,4,5-triol] was run?
A: 27 nM

Q: For `OC[C@H]1O[C@H](C#Cc2ccc(C#C[C@H]3O[C@H](CO)[C@@H](O)[C@H](O)[C@@H]3O)c(Cc3ccccc3)c2)[C@@H](O)[C@@H](O)[C@@H]1O` [Compound 158, (2R,3S,4R,5S,6R)-2-[2-[3-benzyl-4-[2-[(2R,3S,4R,5S,6R)-3,4,5-trihydroxy-6-(hydroxymethyl)tetrahydropyran-2-yl]ethynyl]phenyl]ethynyl]-6-(hydroxymethyl)tetrahydropyran-3,4,5-triol], which IC50 is on record?
A: 11 nM

Q: How did the IC50 turn out when `CC(C)c1cc(C#C[C@H]2O[C@H](CO)[C@@H](O)[C@H](O)[C@@H]2O)c(C(C)C)cc1C#C[C@H]1O[C@H](CO)[C@@H](O)[C@H](O)[C@@H]1O` [Compound 76] was run?
A: 46 nM

Q: Which IC50 does the source give for `CC(C)CC1(O)c2cc(C#C[C@H]3O[C@H](CO)[C@@H](O)[C@H](O)[C@@H]3O)ccc2-c2ccc(C#C[C@H]3O[C@H](CO)[C@@H](O)[C@H](O)[C@@H]3O)cc21` [Compound 169, (2R,3S,4R,5S,6R)-2-[2-[9-hydroxy-9-isobutyl-7-[2-[(2R,3S,4R,5S,6R)-3,4,5-trihydroxy-6-(hydroxymethyl)tetrahydropyran-2-yl]ethynyl]fluoren-2-yl]ethynyl]-6-(hydroxymethyl)tetrahydropyran-3,4,5-triol] here?
A: 0.66 nM

Q: `OC[C@H]1O[C@H](C#Cc2ccc3c(c2)C2(CCC(O)CC2)c2cc(C#C[C@H]4O[C@H](CO)[C@@H](O)[C@H](O)[C@@H]4O)ccc2-3)[C@@H](O)[C@@H](O)[C@@H]1O` (stereo partly drawn) [Compound 203] was tested. Which IC50 did it give?
A: 0.04 nM

Q: For `OC[C@H]1O[C@H](C#Cc2cc3sc(C#C[C@H]4O[C@H](CO)[C@@H](O)[C@H](O)[C@@H]4O)cc3s2)[C@@H](O)[C@@H](O)[C@@H]1O` [Compound 133], which IC50 is on record?
A: 28 nM

Q: With `CC1(C(=O)c2c(C#C[C@H]3O[C@H](CO)[C@@H](O)[C@H](O)[C@@H]3O)ccc3c2C2(CCNCC2)c2cc(C#C[C@H]4O[C@H](CO)[C@@H](O)[C@H](O)[C@@H]4O)ccc2-3)CC1` [Compound 225, [2,7-bis[2-[(2R,3S,4R,5S,6R)-3,4,5-trihydroxy-6-(hydroxymethyl)tetrahydropyran-2-yl]ethynyl]spiro[fluorene-9,4piperidine]-1yl]-(1-methylcyclopropyl)methanone] as the compound, how does the IC50 read?
A: 1.2 nM

Q: `COc1cc([C@H]2O[C@H](CO)[C@@H](O)[C@H](O)[C@@H]2O)ccc1-c1ccc([C@H]2O[C@H](CO)[C@@H](O)[C@H](O)[C@@H]2O)c(C)c1` [Compound 147] was tested. Which IC50 did it give?
A: 134 nM

Q: For `N#Cc1cc(C#C[C@H]2O[C@H](CO)[C@@H](O)[C@H](O)[C@@H]2O)ccc1C#C[C@H]1O[C@H](CO)[C@@H](O)[C@H](O)[C@@H]1O` [Compound 101, 2,5-bis[2-[(2R,3S,4R,5S,6R)-3,4,5-trihydroxy-6-(hydroxymethyl)tetrahydropyran-2-yl]ethynyl]benzonitrile], which IC50 is on record?
A: 21 nM

Q: For `COc1cc([C@H]2O[C@H](CO)[C@@H](O)[C@H](O)[C@@H]2O)ccc1C#C[C@H]1O[C@H](CO)[C@@H](O)[C@H](O)[C@@H]1O` [Compound 145], which IC50 is on record?
A: 430 nM
